We go through 30 molecules from US20230391774A1, “Novel Compounds” (AC Immune SA, priority 2020, published 2023).

Broadly, the pEC50 is −log10 of the EC50, conventionally taken in molar units.

Each structure is given as a SMILES string. pEC50: −log10 of the molar value. Some results are limits rather than exact numbers.

For the assay, the target named is T1, flTau aggregates (longest isoform of human Tau, 2N4R) (Homo sapiens, UniProt P10636).
T1 construct: 35 μM of recombinant full-length (fl) Tau in phosphate-buffered saline (PBS) were aggregated; purchased Biotechne; host or cells: bacteria
T1 sequence (P10636 1-441 isoform P10636-8): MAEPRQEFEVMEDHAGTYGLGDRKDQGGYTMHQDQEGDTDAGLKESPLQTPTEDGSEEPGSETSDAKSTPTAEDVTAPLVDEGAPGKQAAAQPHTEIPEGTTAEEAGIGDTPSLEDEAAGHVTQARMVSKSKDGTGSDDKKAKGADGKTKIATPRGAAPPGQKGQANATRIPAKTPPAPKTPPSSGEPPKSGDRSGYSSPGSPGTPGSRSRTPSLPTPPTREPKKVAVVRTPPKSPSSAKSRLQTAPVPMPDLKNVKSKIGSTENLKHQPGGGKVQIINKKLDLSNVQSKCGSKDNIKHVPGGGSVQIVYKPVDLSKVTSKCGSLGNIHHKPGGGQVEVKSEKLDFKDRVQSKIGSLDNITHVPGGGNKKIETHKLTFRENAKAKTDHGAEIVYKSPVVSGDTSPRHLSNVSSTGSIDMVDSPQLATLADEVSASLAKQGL
The assay is described as follows: Full-length Tau (flTau) disaggregation assay by Thioflavin T (ThT). Format: biochemical. Particulars: ThT fluorescence; 60 nM flTau aggregates, 30 minutes at RT; read-out: flTau disaggregation EC50. Here is the method: Full-Length Tau (flTau) Disaggregation Assay by Thioflavin T (ThT)
The longest isoform of human Tau (2N4R; 441 amino acids) was expressed in bacteria and purified (Biotechne). For the Tau disaggregation assay by ThT, 35 μM of recombinant full-length (fl) Tau in phosphate-buffered saline (PBS) were aggregated for 72 hours at 37° C. in presence of 35 μM of heparin (Sigma-Aldrich) and 10 mM of […] (Sigma-Aldrich) under shaking at 1000 RPM. Compound 1 was dissolved in anhydrous dimethyl sulfoxide (DMSO, Sigma-Aldrich) to reach a concentration of 2.5 mM. flTau aggregates and serial dilutions of compound 1 were mixed together in PBS (volume 50 μL) to a final concentration of 60 nM of flTau aggregates and from 20 to 0.0012 μM of Compound 1. The mixture was incubated for 30 minutes at room temperature (RT), then 40 μL of this mixture were transferred into a black 384-well plate assay (Perkin-Elmer) and mixed with 10 μL of 20 μM ThT in 250 mM glycine (both from Sigma-Aldrich) in PBS. Fluorescence (relative fluorescence units; RFU) was measured in monoplicate or duplicate on a Tecan reader (excitation: 440 nm; emission: 485 nm). Percentage of flTau disaggregation was then calculated and the half maximal effective concentration (EC50) was determined using GraphPad Prism version 8 (GraphPad Software) assuming a one-binding site fitting model, see Table 3 and Table 4.
Regarding `Cn1cc(-c2ccc3oc(N4CCOCC4)nc3c2)c2cc(F)cnc21` [Example 3, 5-(5-fluoro-1-methyl-1H-pyrrolo[2,3-b]pyridin-3-yl)-2-morpholinobenzo[d]oxazole], the pEC50 is 5.00 to 6.00.

With `c1ccc2c(-c3ccc4oc(N5CCOCC5)nc4c3)n[nH]c2c1` [Example 4, 5-(1H-indazol-3-yl)-2-morpholinobenzo[d]oxazole], the pEC50 is more than 6.00.

For the molecule `C(#Cc1n[nH]c2ccccc12)c1ccc2oc(N3CCOCC3)nc2c1` [Example 5, 5-((1H-indazol-3-yl)ethynyl)-2-morpholinobenzo[d]oxazole], the negative-log EC50 (pEC50) was more than 6.00.

As for `C(#Cc1c[nH]c2ccccc12)c1ccc2oc(N3CCOCC3)nc2c1` [Example 6, 5-((1H-indol-3-yl)ethynyl)-2-morpholinobenzo[d]oxazole], the negative logarithm of the EC50 (pEC50) is 5.00 to 6.00.

Consider `c1ccc2c(-c3cnn(-c4ccc5oc(N6CCOCC6)nc5c4)c3)n[nH]c2c1` [Example 8, 5-(4-(1H-indazol-3-yl)-1H-pyrazol-1-yl)-2-morpholinobenzo[d]oxazole], for which the pEC50 is more than 6.00.

Regarding `c1ccc2c(-c3ccn(-c4ccc5oc(N6CCOCC6)nc5c4)n3)n[nH]c2c1` [Example 10, 5-(3-(1H-indazol-3-yl)-1H-pyrazol-1-yl)-2-morpholinobenzo[d]oxazole], the pEC50 was more than 6.00.

As for `c1ccc2c(-c3ccn(-c4ccc5oc(N6CCOCC6)nc5c4)n3)c[nH]c2c1` [Example 11, 5-(3-(1H-indol-3-yl)-1H-pyrazol-1-yl)-2-morpholinobenzo[d]oxazole], the pEC50 is more than 6.00.

Turning to `O=C(Nc1ccc2oc(N3CCOCC3)nc2c1)c1c[nH]c2ccccc12` [Example 12, N-(2-morpholinobenzo[d]oxazol-5-yl)-1H-indole-3-carboxamide], the pEC50 is more than 6.00.

For the molecule `O=C(Nc1ccc2oc(N3CCOCC3)nc2c1)c1c[nH]c2ncccc12` [Example 13, N-(2-morpholinobenzo[d]oxazol-5-yl)-1H-pyrrolo[2,3-b]pyridine-3-carboxamide], the negative logarithm of the EC50 (pEC50) is more than 6.00.

Turning to `O=C(Nc1ccc2oc(N3CCOCC3)nc2c1)c1n[nH]c2ccccc12` [Example 18, N-(2-morpholinobenzo[d]oxazol-5-yl)-1H-indazole-3-carboxamide], the pEC50 was 5.00 to 6.00.

For the molecule `Cn1cc(C2CCN(c3ccc4oc(N5CCOCC5)nc4c3)CC2)c2cccnc21` [Example 21, 5-(4-(1-methyl-1H-pyrrolo[2,3-b]pyridin-3-yl)piperidin-1-yl)-2-morpholinobenzo[d]oxazole], the pEC50 is 5.00 to 6.00.

`Fc1cnc2[nH]cc(C3CCN(c4ccc5oc(N6CCOCC6)nc5c4)CC3)c2c1` [Example 22, 5-(4-(5-fluoro-1H-pyrrolo[2,3-b]pyridin-3-yl)piperidin-1-yl)-2-morpholinobenzo[d]oxazole]: the pEC50 was 5.00 to 6.00.

As for `c1ccn2c(C3CCN(c4ccc5oc(N6CCOCC6)nc5c4)CC3)cnc2c1` [Example 25, 5-(4-(imidazo[1,2-a]pyridin-3-yl)piperidin-1-yl)-2-morpholinobenzo[d]oxazole], the pEC50 was 5.00 to 6.00.

For `c1ccc2c(C3CCN(c4cnc5nc(N6CCOCC6)sc5c4)CC3)c[nH]c2c1` [Example 28, 4-(6-(4-(1H-indol-3-yl)piperidin-1-yl)thiazolo[4,5-b]pyridin-2-yl)morpholine], the pEC50 was more than 6.00.

Regarding `Fc1cnc2c(C3CCN(c4ccc5nc(N6CCOCC6)sc5c4)CC3)c[nH]c2c1` [Example 30, 4-(6-(4-(6-fluoro-1H-pyrrolo[3,2-b]pyridin-3-yl)piperidin-1-yl)benzo[d]thiazol-2-yl)morpholine], the pEC50 was more than 6.00.

Turning to `Cn1nc(C2CCN(c3ccc4oc(N5CCOCC5)nc4c3)CC2)c2cccnc21` [Example 31, 5-(4-(1-methyl-1H-pyrazolo[3,4-b]pyridin-3-yl)piperidin-1-yl)-2-morpholinobenzo[d]oxazole], the pEC50 was 5.00 to 6.00.

For the molecule `c1ccc2c(C3CCN(c4ccc5oc(N6CCOCC6)nc5c4)C3)c[nH]c2c1` (stereo not drawn) [Example 39, 5-(3-(1H-indol-3-yl)pyrrolidin-1-yl)-2-morpholinobenzo[d]oxazole], the pEC50 was 5.00 to 6.00.

As to `c1ccc2c(C3CCN(c4ccc5oc(N6CCOCC6)nc5c4)C3)c[nH]c2c1` (stereo not drawn) [Example 40, 5-(3-(1H-indol-3-yl)pyrrolidin-1-yl)-2-morpholinobenzo[d]oxazole], the pEC50 was more than 6.00.

In the case of `c1ccc2c(C3CCN(c4cc5nc(N6CCOCC6)oc5cn4)CC3)n[nH]c2c1` [Example 45, 6-(4-(1H-indazol-3-yl)piperidin-1-yl)-2-morpholinooxazolo[5,4-c]pyridine], the negative logarithm of the EC50 (pEC50) was 5.00 to 6.00.

Take `c1ccc2c(C3CCN(c4cc5nc(N6CCOCC6)oc5cn4)CC3)c[nH]c2c1` [Example 48, 6-(4-(1H-indol-3-yl)piperidin-1-yl)-2-morpholinooxazolo[5,4-c]pyridine]: the negative-log EC50 (pEC50) was 5.00 to 6.00.

As for `c1ccc2c(C3CCN(c4cnc5oc(N6CCOCC6)nc5c4)CC3)n[nH]c2c1` [Example 49, 6-(4-(1H-indazol-3-yl)piperidin-1-yl)-2-morpholinooxazolo[5,4-b]pyridine], the negative logarithm of the EC50 (pEC50) was 4.30 to 5.00.

With `Fc1ccc2[nH]nc(C3CCN(c4ccc5oc(N6CCOCC6)nc5c4)CC3)c2c1` [Example 61, 5-(4-(5-fluoro-1H-indazol-3-yl)piperidin-1-yl)-2-morpholinobenzo[d]oxazole], the pEC50 is 5.00 to 6.00.

Take `Cn1cc(C2CCN(c3ccc4oc(N5CCOCC5)nc4c3)CC2)c2ccccc21` [Example 68, 5-(4-(1-methyl-1H-indol-3-yl)piperidin-1-yl)-2-morpholinobenzo[d]oxazole]: the negative logarithm of the EC50 (pEC50) is 5.00 to 6.00.

Turning to `c1ccc2c(C3CCN(c4cc5oc(N6CCOCC6)nc5cn4)CC3)n[nH]c2c1` [Example 72, 6-(4-(1H-indazol-3-yl)piperidin-1-yl)-2-morpholinooxazolo[4,5-c]pyridine], the negative-log EC50 (pEC50) is 4.30 to 5.00.

Take `Fc1cccc2[nH]nc(C3CCN(c4ccc5oc(N6CCOCC6)nc5c4)CC3)c12` [Example 73, 5-(4-(4-fluoro-1H-indazol-3-yl)piperidin-1-yl)-2-morpholinobenzo[d]oxazole]: the pEC50 is 5.00 to 6.00.

On to `Fc1ccc2c(C3CCN(c4ccc5oc(N6CCOCC6)nc5c4)CC3)n[nH]c2c1` [Example 74, 5-(4-(6-fluoro-1H-indazol-3-yl)piperidin-1-yl)-2-morpholinobenzo[d]oxazole], for which the negative-log EC50 (pEC50) is 5.00 to 6.00.

As for `Fc1cccc2c(C3CCN(c4ccc5oc(N6CCOCC6)nc5c4)CC3)n[nH]c12` [Example 75, 5-(4-(7-fluoro-1H-indazol-3-yl)piperidin-1-yl)-2-morpholinobenzo[d]oxazole], the negative-log EC50 (pEC50) was more than 6.00.

For `Cc1ccc2[nH]nc(C3CCN(c4ccc5oc(N6CCOCC6)nc5c4)CC3)c2c1` [Example 76, 5-(4-(5-methyl-1H-indazol-3-yl)piperidin-1-yl)-2-morpholinobenzo[d]oxazole], the pEC50 was 5.00 to 6.00.

In the case of `Cc1ccc2c(C3CCN(c4ccc5oc(N6CCOCC6)nc5c4)CC3)n[nH]c2c1` [Example 77, 5-(4-(6-methyl-1H-indazol-3-yl)piperidin-1-yl)-2-morpholinobenzo[d]oxazole], the negative-log EC50 (pEC50) was 5.00 to 6.00.

For `Cc1cccc2c(C3CCN(c4ccc5oc(N6CCOCC6)nc5c4)CC3)n[nH]c12` [Example 78, 5-(4-(7-methyl-1H-indazol-3-yl)piperidin-1-yl)-2-morpholinobenzo[d]oxazole], the negative-log EC50 (pEC50) was 5.00 to 6.00.
